Assay results from patent US7332501B2, “Indol-3-yl-carbonyl-spiro-piperidine derivatives as V1a receptor antagonists” (Hoffmann-La Roche Inc., priority 2005, dated 2008).
pKi: −log10 of the molar value.

biological target: T1, human V1a receptor (Homo sapiens, UniProt P37288); experiment: human V1a receptor binding (3H-Vasopressin SPA, HEK293 membranes); conditions: displacement of 4 nM 3H-Vasopressin, membranes of HEK293 cells transiently transfected with human V1a receptor; Ki from IC50 by Cheng-Prussoff
T1 construct: expressed in transfected cells; host or cells: HEK293 cells, transiently transfected; cell membranes
Protocol: The human V1a receptor was cloned by RT-PCR from total human liver RNA. The coding sequence was subcloned in an expression vector after sequencing to confirm the identity of the amplified sequence. […] Cell membranes were prepared from HEK293 cells transiently transfected with the expression vector and grown in 20 liter fermenters with the following protocol.
50 g cells are resuspended in 30 ml freshly prepared ice cold Lysis buffer (50 mM HEPES, 1 mM EDTA, 10 mM MgCl2 adjusted to pH=7.4+complete cocktail of protease inhibitor (Roche Diagnostics)). The cells are homogenized with Polytron for 1 min and sonicated on ice for 2×2 minutes at 80% intensity (Vibracell sonicator). The preparation is centrifuged 20 min at 500 g at 4° C., the pellet is discarded and the supernatant centrifuged 1 hour at 43,000 g at 4° C. (19,000 rpm). The pellet is resuspended in 12.5 ml Lysis buffer+12.5 ml Sucrose 20% and homogenized using a Polytron for 1-2 min. The protein concentration is determined by the Bradford method and aliquots are stored at −80° C. until use. For binding studies 60 mg Yttrium silicate SPA beads (Amersham) are mixed with an aliquot of membrane in binding buffer (50 mM Tris, 120 mM NaCl, 5 mM KCl, 2 mM CaCl2, 10 mM MgCl2) for 15 minutes with mixing. 50 ul of bead/membrane mixture is then added to each well of a 96 well plate, followed by 50 ul of 4 nM 3H-Vasopressin (American Radiolabeled Chemicals). For total binding measurement 100 ul of binding buffer are added to the respective wells, for non-specific binding 100 ul of […] cold vasopressin and for compound testing 100 ul of a serial dilution of each compound in 2% DMSO. The plate is incubated 1 h at room temperature, centrifuged 1 min at 1000 g and counted on a Packard Top-Count. Non-specific binding counts are subtracted from each well and data is normalized to the maximum specific binding set at 100%. To calculate an IC 50 the curve is fitted using a non-linear regression model (XLfit), and the Ki is calculated using the Cheng-Prussoff equation.

T1 sequence (P37288 whole entry): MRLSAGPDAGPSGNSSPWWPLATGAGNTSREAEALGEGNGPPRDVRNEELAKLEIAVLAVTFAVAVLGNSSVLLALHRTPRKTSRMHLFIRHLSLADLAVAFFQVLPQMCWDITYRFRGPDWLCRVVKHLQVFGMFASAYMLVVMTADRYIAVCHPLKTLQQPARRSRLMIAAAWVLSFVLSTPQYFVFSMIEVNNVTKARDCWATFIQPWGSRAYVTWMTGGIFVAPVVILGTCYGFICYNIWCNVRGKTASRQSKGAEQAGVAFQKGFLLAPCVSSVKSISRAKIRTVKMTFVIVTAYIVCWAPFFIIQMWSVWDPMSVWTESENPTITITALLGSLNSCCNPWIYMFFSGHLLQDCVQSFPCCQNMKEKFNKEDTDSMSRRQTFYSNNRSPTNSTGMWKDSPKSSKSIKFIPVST

In order of falling pKi:
1. CN1CCC[C@H]1Cn1cc(C(=O)N2CCC3(CC2)OCc2ccccc23)c2ccc(Cl)cc21 [Example 268]  10.15
2. O=C(Cn1cc(C(=O)N2CCC3(CC2)OCc2ccccc23)c2ccc(Cl)cc21)c1ccccc1F [Example 224, 2-[6-Chloro-3-(1′H,3H-spiro[2-benzofuran-1,4′-piperidin]-1′-ylcarbonyl)-1H-indol-1-yl]-1-(2-fluorophenyl)ethanone]  8.89
3. CN1CCN(C(=O)Cn2cc(C(=O)N3CCC4(CC3)OC(=O)c3cc(F)ccc34)c3ccc(Cl)cc32)CC1 [Example 114, 1′-({6-Chloro-1-[2-(4-methylpiperazin-1-yl)-2-oxoethyl]-1H-indol-3-yl}carbonyl)-5-fluoro-3H-spiro[2-benzofuran-1,4′-piperidin]-3-one]  8.89
4. O=C(c1cn(CC2CCOCC2)c2cc(Cl)ccc12)N1CCC2(CC1)OCc1ccccc12 [Example 263, 1′-{[6-Chloro-1-(tetrahydro-2H-pyran-4-ylmethyl)-1H-indol-3-yl]carbonyl}-3H-spiro[2-benzofuran-1,4′-piperidine]]  8.77
5. CNC(=O)Cn1cc(C(=O)N2CCC3(CC2)OC(=O)c2cc(F)ccc23)c2ccc(Cl)cc21 [Example 116, 2-{6-Chloro-3-[(5-fluoro-3-oxo-1′H,3H-spiro[2-benzofuran-1,4′-piperidin]-1′-yl)carbonyl]-1H-indol-1-yl}-N-methylacetamide]  8.77
6. N#CCC1(Cn2cc(C(=O)N3CCC4(CC3)OCc3ccccc34)c3ccc(Cl)cc32)CC1 [Example 245, (1-{[6-Chloro-3-(1′H,3H-spiro[2-benzofuran-1,4′-piperidin]-1′-ylcarbonyl) -1H-indol-1-yl]methyl}cyclopropyl)acetonitrile]  8.77
7. O=C(c1cn(Cc2cnccn2)c2cc(Cl)ccc12)N1CCC2(CC1)OCc1ccccc12 [Example 234, 1′-{[6-Chloro-1-(pyrazin-2-ylmethyl)-1H-indol-3-yl]carbonyl}-3H-spiro[2-benzofuran-1,4′-piperidine]]  8.74
8. CNCCn1cc(C(=O)N2CCC3(CC2)OCc2ccccc23)c2ccc(Cl)cc21 [Example 254, 2-[6-Chloro-3-(1′H,3H-spiro[2-benzofuran-1,4′-piperidin]-1′-ylcarbonyl)-1H-indol-1-yl]-N-methylethanamine]  8.72
9. O=C1OC2(CCN(C(=O)c3cn(CC(=O)N4CCOCC4)c4cc(Cl)ccc34)CC2)c2ccccc21 [Example 105, 1′-{[6-Chloro-1-(2-morpholin-4-yl-2-oxoethyl)-1H-indol-3-yl]carbonyl}-3H-spiro[2-benzofuran-1,4′-piperidin]-3-one]  8.64
10. N#CCCn1cc(C(=O)N2CCC3(CC2)OC(=O)c2cc(F)ccc23)c2ccc(Cl)cc21 [Example 175, 3-{6-Chloro-3-[(5-fluoro-3-oxo-1′H,3H-spiro[2-benzofuran-1,4′-piperidin]-1′-yl)carbonyl]-1H-indol-1-yl}propanenitrile]  8.60
11. O=C(c1cn(C(=O)N2CCCCC2)c2cc(Cl)ccc12)N1CCC2(CC1)OCc1ccccc12 [Example 208, 1′-{[6-Chloro-1-(piperidin-1-ylcarbonyl)-1H-indol-3-yl]carbonyl}-3H-spiro[2-benzofuran-1,4′-piperidine]]  8.59
12. N#CCC1(Cn2cc(C(=O)N3CCC4(CC3)OC(=O)c3cc(F)ccc34)c3ccc(Cl)cc32)CC1 [Example 191, [1-({6-Chloro-3-[(5-fluoro-3-oxo-1′H,3H-spiro[2-benzofuran-1,4′-piperidin]-1′-yl)carbonyl]-1H-indol-1-yl}methyl)cyclopropyl]acetonitrile]  8.55
13. Cc1noc(C)c1Cn1cc(C(=O)N2CCC3(CC2)OC(=O)c2cc(F)ccc23)c2ccc(Cl)cc21 [Example 186, 1′-({6-Chloro-1-[(3,5-dimethylisoxazol-4-yl)methyl]-1H-indol-3-yl}carbonyl)-5-fluoro-3H-spiro[2-benzofuran-1,4′-piperidin]-3-one]  8.54
14. O=C(c1cn(CC2CO2)c2cc(Cl)ccc12)N1CCC2(CC1)OCc1ccccc12 (stereo not drawn) [Example 258, 1′-{[6-Chloro-1-(oxiran-2-ylmethyl)-1H-indol-3-yl]carbonyl}-3H-spiro[2-benzofuran-1,4′-piperidine]]  8.43
15. O=C(c1cn(Cc2cccc(F)c2)c2cc(Cl)ccc12)N1CCC2(CC1)CNc1ccccc12 [Example 94]  8.39
16. O=C1OC2(CCN(C(=O)c3c[nH]c4cc(Cl)ccc34)CC2)c2ccccc21 [Example 16, 1′-[(6-chloro-1H-indol-3-yl)carbonyl]-3H-spiro[2-benzofuran-1,4′-piperidin]-3-one]  8.36
17. O=C(Cn1cc(C(=O)N2CCC3(CC2)OC(=O)c2cc(Br)ccc23)c2ccc(Cl)cc21)c1cccc(F)c1 [Example 152, 5-Bromo-1′-({6-chloro-1-[2-(3-fluorophenyl)-2-oxoethyl]-1H-indol-3-yl}carbonyl)-3H-spiro[2-benzofuran-1,4′-piperidin]-3-one]  8.36
18. CN(C)CCn1cc(C(=O)N2CCC3(CC2)COc2ccccc23)c2ccc(Cl)cc21 [Example 81, 2-[6-chloro-3-(1′H-spiro[1-benzofuran-3,4′-piperidin]-1′-ylcarbonyl)-1H-indol-1-yl]-N,N-dimethylethanamine]  8.30
19. Cc1c(C(=O)N2CCC3(CC2)OC(=O)c2ccc(OCCO)cc23)c2ccccc2n1Cc1ccccc1 [Example 122, 1′-[(1-benzyl-2-methyl-1H-indol-3-yl)carbonyl]-6-(2-hydroxyethoxy)-3H-spiro[2-benzofuran-1,4′-piperidin]-3-one]  8.28
20. Cc1[nH]c2cc(Cl)ccc2c1C(=O)N1CCC2(CC1)OCc1ccccc12 [Example 277, 1′-[(6-Chloro-2-methyl-1H-indol-3-yl)carbonyl]-3H-spiro[2-benzofuran-1,4′-piperidine]]  8.28
21. CCN(CC)C(=O)Cn1cc(C(=O)N2CCC3(CC2)CNc2ccccc23)c2ccc(Cl)cc21 [Example 99, 2-[6-Chloro-3-(1,2-dihydro-1′H-spiro[indole-3,4′-piperidin]-1′-ylcarbonyl)-1H-indol-1-yl]-N,N-diethylacetamide]  8.24
22. Cc1c(C(=O)N2CCC3(C=Cc4ccccc43)CC2)c2ccccc2n1Cc1ccccc1 [Example 1, 1′-[(1-benzyl-2-methyl-1H-indol-3-yl)carbonyl]spiro[indene-1,4′-piperidine]]  8.17
23. O=C(c1cn(Cc2ccccc2)c2ccccc12)N1CCC2(CC1)OCc1ccccc12 [Example 68, 1′-[(1-benzyl-1H-indol-3-yl)carbonyl]-3H-spiro[2-benzofuran-1,4′-piperidine]]  8.16
24. CCN(CC)CCn1cc(C(=O)N2CCC3(CC2)COc2ccccc23)c2ccc(Cl)cc21 [Example 85, 2-[6-chloro-3-(1′H-spiro[1-benzofuran-3,4′-piperidin]-1′-ylcarbonyl)-1H-indol-1-yl]-N,N-diethylethanamine]  7.99
25. O=C1OC2(CCN(C(=O)c3c(C(=O)N4CCCCC4)[nH]c4cc(Cl)ccc34)CC2)c2ccc(F)cc21 [Example 33, 1′-{[6-chloro-2-(piperidin-1-ylcarbonyl)-1H-indol-3-yl]carbonyl}-5-fluoro-3H-spiro[2-benzofuran-1,4′-piperidin]-3-one]  7.97
26. Cc1c(C(=O)N2CCC3(CC2)OCc2ccccc23)c2ccccc2n1C(=O)c1ccccc1 [Example 44, 1′-[(1-benzoyl-2-methyl-1H-indol-3-yl)carbonyl]-3H-spiro[2-benzofuran-1,4′-piperidine]]  7.96
27. CCN(CC)C(=O)c1[nH]c2cc(Cl)ccc2c1C(=O)N1CCC2(CC1)OC(=O)c1cc(F)ccc12 [Example 31, 6-chloro-N,N-diethyl-3-[(5-fluoro-3-oxo-1′H,3H-spiro[2-benzofuran-1,4′-piperidin]-1′-yl)carbonyl]-1H-indole-2-carboxamide]  7.91
28. Cc1c(C(=O)N2C[C@H](C)C3(OC(=O)c4ccccc43)[C@@H](C)C2)c2ccccc2n1Cc1ccccc1 (racemic) [Example 15, (SS,RR)-1′-[(1-benzyl-2-methyl-1H-indol-3-yl)carbonyl]-3′,5′-dimethyl-3H-spiro[2-benzofuran-1,4′-piperidin]-3-one]  7.83
29. Cc1ncc(Cn2cc(C(=O)N3CCC4(CC3)OC(=O)c3cc(F)ccc34)c3ccc(Cl)cc32)c(N)n1 [Example 163, 1′-({1-[(4-Amino-2-methylpyrimidin-5-yl)methyl]-6-chloro-1H-indol-3-yl}carbonyl)-5-fluoro-3H-spiro[2-benzofuran-1,4′-piperidin]-3-one]  7.82
30. CN(C)CCNC(=O)Cn1cc(C(=O)N2CCC3(CC2)OC(=O)c2ccccc23)c2ccc(Cl)cc21 [Example 119, 2-{6-Chloro-3-[(3-oxo-1′H,3H-spiro[2-benzofuran-1,4′-piperidin]-1′-yl)carbonyl]-1H-indol-1-yl}-N-[2-(dimethylamino)ethyl]acetamide]  7.62
